In ChEMBL document CHEMBL1201861, “Genomics of Drug Sensitity in Cancer screening data, Wellcome Trust Sanger Institute”:

What was measured:
Format in all cases: functional, cell-based
[1] = tested on: NCI-H292; assay: cells; details: Homo sapiens;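 note: growth inhibition of NCI-H292 cells, read out with a cell viability assay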
Description: SANGER: Inhibition of human NCI-H292 cell growth in a cell viability assay.

[2] = tested on: NCI-H2081; assay: cells; details: Homo sapiens;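 note: growth inhibition of human NCI-H2081 cells, read out with a cell viability assay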
Description: SANGER: Inhibition of human NCI-H2081 cell growth in a cell viability assay.

[3] = tested on: Calu-3; assay: cells; details: Homo sapiens;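 note: growth inhibition of human Calu-3 cells, determined with a cell viability assay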
Description: SANGER: Inhibition of human Calu-3 cell growth in a cell viability assay.

[4] = tested on: KYSE-150 cell line; assay: cells; details: Homo sapiens;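 note: growth inhibition of human KYSE-150 cells, read out with a cell viability assay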
Description: SANGER: Inhibition of human KYSE-150 cell growth in a cell viability assay.

[5] = tested on: MDA-MB-134-VI; assay: cells; details: Homo sapiens
Description: SANGER: Inhibition of human MDA-MB-134-VI cell growth in a cell viability assay.

[6] = tested on: YAPC; assay: cells; details: Homo sapiens;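 note: growth inhibition of YAPC cells, measured with a cell viability assay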
Description: SANGER: Inhibition of human YAPC cell growth in a cell viability assay.

[7] = tested on: ASPC1; assay: cells; details: Homo sapiens;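 note: growth inhibition of AsPC-1 cells, read out with a cell viability assay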
Description: SANGER: Inhibition of human AsPC-1 cell growth in a cell viability assay.

[8] = tested on: GAMG; assay: cells; details: Homo sapiens;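 note: cell growth inhibition measured by a viability assay in the GAMG human cell line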
Description: SANGER: Inhibition of human GAMG cell growth in a cell viability assay.

[9] = tested on: HO-1-N-1; assay: cells; details: Homo sapiens;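 note: growth inhibition of human HO-1-N-1 cells, read out with a cell viability assay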
Description: SANGER: Inhibition of human HO-1-N-1 cell growth in a cell viability assay.

[10] = tested on: LCLC-97TM1; assay: cells; details: Homo sapiens;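 note: cell viability assay measuring growth inhibition of human LCLC-97TM1 cells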
Description: SANGER: Inhibition of human LCLC-97TM1 cell growth in a cell viability assay.

[11] = tested on: T47D; assay: cells; details: Homo sapiens;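 note: growth inhibition of human T47D cells, measured with a cell viability assay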
Description: SANGER: Inhibition of human T47D cell growth in a cell viability assay.

[12] = tested on: SW13; assay: cells; details: Homo sapiens;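 note: IC50 is inhibition of SW13 cell growth, read out with a cell viability assay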
Description: SANGER: Inhibition of human SW13 cell growth in a cell viability assay.

[13] = tested on: MKN-7; assay: cells; details: Homo sapiens;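 note: growth inhibition of MKN-7 cells, read out with a cell viability assay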
Description: SANGER: Inhibition of human MKN7 cell growth in a cell viability assay.

[14] = tested on: NCI-H716; assay: cells; details: Homo sapiens;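 note: growth inhibition of human NCI-H716 cells, measured by a cell viability assay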
Description: SANGER: Inhibition of human NCI-H716 cell growth in a cell viability assay.

[15] = tested on: MDA-MB-231; assay: cells; details: Homo sapiens
Description: SANGER: Inhibition of human MDA-MB-231 cell growth in a cell viability assay.

[16] = tested on: H4; assay: cells; details: Homo sapiens
Description: SANGER: Inhibition of human H4 cell growth in a cell viability assay.

[17] = tested on: NCI-H520; assay: cells; details: Homo sapiens;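 note: growth inhibition of NCI-H520 cells, measured by a cell viability assay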
Description: SANGER: Inhibition of human NCI-H520 cell growth in a cell viability assay.

[18] = tested on: SK-OV-3; assay: cells; details: Homo sapiens;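 note: growth inhibition of SK-OV-3 human cells, read out with a cell viability assay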
Description: SANGER: Inhibition of human SK-OV-3 cell growth in a cell viability assay.

[19] = tested on: A204; assay: cells; details: Homo sapiens;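 note: growth inhibition of human A204 cells, read out with a cell viability assay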
Description: SANGER: Inhibition of human A204 cell growth in a cell viability assay.

[20] = tested on: PC-14; assay: cells; details: Homo sapiens;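 note: cell viability assay measuring inhibition of PC-14 cell growth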
Description: SANGER: Inhibition of human PC-14 cell growth in a cell viability assay.

[21] = tested on: NCI-H2141; assay: cells; details: Homo sapiens;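 note: growth inhibition of human NCI-H2141 cells, read out with a cell viability assay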
Description: SANGER: Inhibition of human NCI-H2141 cell growth in a cell viability assay.

[22] = tested on: KU-19-19; assay: cells; details: Homo sapiens
Description: SANGER: Inhibition of human KU-19-19 cell growth in a cell viability assay.

[23] = tested on: LP-1; assay: cells; details: Homo sapiens;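 note: growth inhibition of human LP-1 cells, with the read-out taken from a cell viability assay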
Description: SANGER: Inhibition of human LP-1 cell growth in a cell viability assay.

[24] = tested on: RPMI 8402; assay: SANGER: Inhibition of human RPMI-8402 cell growth in a cell viability assay.
[25] = tested on: LN-405; assay: cells; details: Homo sapiens
Description: SANGER: Inhibition of human LN-405 cell growth in a cell viability assay.

[26] = tested on: KYSE-510; assay: cells; details: Homo sapiens;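 note: cell viability readout used to measure how strongly growth of the cell line is suppressed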
Description: SANGER: Inhibition of human KYSE-510 cell growth in a cell viability assay.

[27] = tested on: COLO-741; assay: cells; details: Homo sapiens
Description: SANGER: Inhibition of human COLO-741 cell growth in a cell viability assay.

[28] = tested on: NCI-H1437; assay: cells; details: Homo sapiens;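 note: growth inhibition of human NCI-H1437 cells, read out by a cell viability assay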
Description: SANGER: Inhibition of human NCI-H1437 cell growth in a cell viability assay.

[29] = tested on: NCI-H1623; assay: cells; details: Homo sapiens;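 note: cell viability assay used as the read-out for growth inhibition of NCI-H1623 cells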
Description: SANGER: Inhibition of human NCI-H1623 cell growth in a cell viability assay.

[30] = tested on: SNU-16; assay: cells; details: Homo sapiens;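 note: growth inhibition of human SNU-16 cells, determined with a cell viability readout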
Description: SANGER: Inhibition of human NCI-SNU-16 cell growth in a cell viability assay.

[31] = tested on: SK-MM-2; assay: cells; details: Homo sapiens;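 note: growth inhibition of human SK-MM-2 cells, read out with a cell viability assay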
Description: SANGER: Inhibition of human SK-MM-2 cell growth in a cell viability assay.

[32] = tested on: HGC-27; assay: cells; details: Homo sapiens;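 note: growth inhibition of human HGC-27 cells, read out in a cell viability assay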
Description: SANGER: Inhibition of human HGC-27 cell growth in a cell viability assay.

[33] = tested on: J82; assay: cells; details: Homo sapiens;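 note: growth inhibition of J82 cells, read out with a cell viability assay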
Description: SANGER: Inhibition of human J82 cell growth in a cell viability assay.

[34] = tested on: HCC1806; assay: cells; details: Homo sapiens;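 note: growth inhibition of the cancer cell line, determined with a cell viability assay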
Description: SANGER: Inhibition of human HCC1806 cell growth in a cell viability assay.

[35] = tested on: NCI-H661; assay: cells; details: Homo sapiens;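 note: cell viability assay read-out, IC50 being the concentration that inhibits growth of the cells by half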
Description: SANGER: Inhibition of human NCI-H661 cell growth in a cell viability assay.

[36] = tested on: G-361; assay: cells; details: Homo sapiens
[37] = tested on: NCI-H1693; assay: cells; details: Homo sapiens;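 note: growth inhibition of the human cell line, read out with a cell viability assay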
Description: SANGER: Inhibition of human NCI-H1693 cell growth in a cell viability assay.

[38] = tested on: COLO-679; assay: cells; details: Homo sapiens
Description: SANGER: Inhibition of human COLO-679 cell growth in a cell viability assay.

[39] = tested on: NB12; assay: cells; details: Homo sapiens;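 note: growth inhibition of human NB12 cells, read out by a cell viability assay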
Description: SANGER: Inhibition of human NB12 cell growth in a cell viability assay.

[40] = tested on: OE33; assay: cells; details: Homo sapiens;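 note: growth inhibition of human OE33 cells, measured by a cell viability assay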
Description: SANGER: Inhibition of human OE33 cell growth in a cell viability assay.

[41] = tested on: SK-MES-1; assay: cells; details: Homo sapiens;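 note: growth inhibition of human SK-MES-1 cells, read out with a cell viability assay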
Description: SANGER: Inhibition of human SK-MES-1 cell growth in a cell viability assay.

[42] = tested on: PC-3; assay: cells; details: Homo sapiens;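 note: cell viability assay measuring growth inhibition of PC-3 cells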
Description: SANGER: Inhibition of human PC-3 cell growth in a cell viability assay.

[43] = tested on: NCI-H2452; assay: cells; details: Homo sapiens;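 note: growth inhibition of NCI-H2452 cells, read out with a cell viability assay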
Description: SANGER: Inhibition of human NCI-H2452 cell growth in a cell viability assay.

[44] = tested on: DMS-153; assay: cells; details: Homo sapiens
Description: SANGER: Inhibition of human DMS-153 cell growth in a cell viability assay.

[45] = tested on: BHY; assay: cells; details: Homo sapiens;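 note: cell growth inhibition read out by a viability assay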
Description: SANGER: Inhibition of human BHY cell growth in a cell viability assay.

[46] = tested on: RO82-W-1; assay: cells; details: Homo sapiens;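 note: growth inhibition of human RO82-W-1 cells, measured with a cell viability assay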
Description: SANGER: Inhibition of human RO82-W-1 cell growth in a cell viability assay.

[47] = tested on: MDA-MB-453; assay: cells; details: Homo sapiens
Description: SANGER: Inhibition of human MDA-MB-453 cell growth in a cell viability assay.

[48] = tested on: AN3-CA; assay: cells; details: Homo sapiens;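 note: growth inhibition of human AN3-CA cells measured by a cell viability assay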
Description: SANGER: Inhibition of human AN3-CA cell growth in a cell viability assay.

[49] = tested on: UACC-62; assay: cells; details: Homo sapiens;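 note: growth inhibition of human UACC-62 cells, read out by a cell viability assay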
Description: SANGER: Inhibition of human UACC-62 cell growth in a cell viability assay.

[50] = tested on: NCI-H345; assay: cells; details: Homo sapiens;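 note: growth inhibition of NCI-H345 cells measured with a cell viability assay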
Description: SANGER: Inhibition of human NCI-H345 cell growth in a cell viability assay.

[51] = tested on: NY; assay: cells; details: Homo sapiens
Description: SANGER: Inhibition of human NY cell growth in a cell viability assay.

[52] = tested on: RMG-I; assay: cells; details: Homo sapiens;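 note: growth inhibition of human RMG-I cells, read out with a cell viability assay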
Description: SANGER: Inhibition of human RMG-I cell growth in a cell viability assay.

[53] = tested on: Daudi; assay: cells; details: Homo sapiens;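 note: growth inhibition of Daudi cells, read out by a viability assay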
Description: SANGER: Inhibition of human Daudi cell growth in a cell viability assay.

[54] = tested on: CAL-120; assay: cells; details: Homo sapiens;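 note: cell growth inhibition, read out as cell viability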
Description: SANGER: Inhibition of human CAL-120 cell growth in a cell viability assay.

[55] = tested on: COLO-680N; assay: cells; details: Homo sapiens;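 note: cell viability assay used to measure inhibition of COLO-680N cell growth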
Description: SANGER: Inhibition of human COLO-680N cell growth in a cell viability assay.

[56] = tested on: CAL-51; assay: cells; details: Homo sapiens;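 note: human CAL-51 cell line, growth inhibition read out via a cell viability assay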
Description: SANGER: Inhibition of human CAL-51 cell growth in a cell viability assay.

[57] = tested on: CPC-N; assay: cells; details: Homo sapiens;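 note: growth inhibition of CPC-N cells, with a cell viability assay as the readout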
Description: SANGER: Inhibition of human CPC-N cell growth in a cell viability assay.

[58] = tested on: RVH-421; assay: cells; details: Homo sapiens
Description: SANGER: Inhibition of human RVH-421 cell growth in a cell viability assay.

[59] = tested on: HCC1937; assay: cells; details: Homo sapiens;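 note: growth inhibition measured with a cell viability read-out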
Description: SANGER: Inhibition of human HCC1937 cell growth in a cell viability assay.

[60] = tested on: CESS; assay: SANGER: Inhibition of human CESS cell growth in a cell viability assay.
[61] = tested on: NCI-H727; assay: cells; details: Homo sapiens;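 note: growth inhibition of human NCI-H727 cells, read out with a cell viability assay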
Description: SANGER: Inhibition of human NCI-H727 cell growth in a cell viability assay.

[62] = tested on: RCM-1; assay: cells; details: Homo sapiens;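 note: growth inhibition of the RCM-1 line, determined with a cell viability readout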
Description: SANGER: Inhibition of human RCM-1 cell growth in a cell viability assay.

[63] = tested on: CAL-148; assay: cells; details: Homo sapiens
Description: SANGER: Inhibition of human CAL-148 cell growth in a cell viability assay.

[64] = tested on: ECC4; assay: cells; details: Homo sapiens;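 note: growth inhibition of ECC4 cells, read out with a cell viability assay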
Description: SANGER: Inhibition of human ECC4 cell growth in a cell viability assay.

[65] = tested on: SW1463; assay: cells; details: Homo sapiens
Description: SANGER: Inhibition of human SW1463 cell growth in a cell viability assay.

Molecule `CC(C)=CC[C@@H](O)C1=CC(=O)c2c(O)ccc(O)c2C1=O` [SHIKONIN] has an IC50 [1] of 853 nM, an IC50 [2] of 1520 nM and an IC50 [3] of 1110 nM. The IC50 [4] was 902 nM, the IC50 [5] was 709 nM and the IC50 [6] was > 16000 nM. The IC50 [7] was 619 nM, the IC50 [8] was 1710 nM and the IC50 [9] was 462 nM. It also gave an IC50 [10] of 613 nM, an IC50 [11] of 223 nM and an IC50 [12] of 1410 nM. For the same molecule, the IC50 [13] was 2210 nM, the IC50 [14] was > 16000 nM and the IC50 [15] was 1020 nM. For the same molecule, the IC50 [16] was 284 nM, the IC50 [17] was 1350 nM and the IC50 [18] was 1560 nM. It also gave an IC50 [19] of 127 nM, an IC50 [20] of 1510 nM and an IC50 [21] of 1710 nM. The IC50 [22] was 3180 nM, the IC50 [23] was 686 nM and the IC50 [24] was 1500 nM. For the same molecule, the IC50 [25] was 6910 nM, the IC50 [26] was 253 nM and the IC50 [27] was 2690 nM. The IC50 [28] was 1560 nM, the IC50 [29] was 2730 nM and the IC50 [30] was > 16000 nM. It also gave an IC50 [31] of 499 nM, an IC50 [32] of 228 nM and an IC50 [33] of 143 nM. It also gave an IC50 [34] of 1270 nM, an IC50 [35] of 5430 nM and an IC50 [36] of 473 nM. The IC50 [37] was > 16000 nM, the IC50 [38] was 184 nM and the IC50 [39] was 666 nM. It also gave an IC50 [40] of 1810 nM, an IC50 [41] of 6290 nM and an IC50 [42] of 859 nM. The IC50 [43] was > 16000 nM, the IC50 [44] was > 16000 nM and the IC50 [45] was 564 nM. It also gave an IC50 [46] of 2840 nM, an IC50 [47] of 2520 nM and an IC50 [48] of 79.6 nM. For the same molecule, the IC50 [49] was 1230 nM, the IC50 [50] was 990 nM and the IC50 [51] was 1050 nM. The IC50 [52] was 864 nM, the IC50 [53] was 3440 nM and the IC50 [54] was 1360 nM. The IC50 [55] was 590 nM, the IC50 [56] was 20.9 nM and the IC50 [57] was > 16000 nM. For the same molecule, the IC50 [58] was 1470 nM, the IC50 [59] was 1660 nM and the IC50 [60] was 776 nM. It also gave an IC50 [61] of 638 nM, an IC50 [62] of 2000 nM and an IC50 [63] of 677 nM. The IC50 [64] was 1200 nM and the IC50 [65] was 8610 nM.

In the case of `C/C(O)=C(\C#N)C(=O)Nc1cc(Br)ccc1Br`, the IC50 [1] is reported as > 16000 nM, the IC50 [2] is reported as > 16000 nM and the IC50 [3] is reported as > 16000 nM. The IC50 [4] was > 16000 nM, the IC50 [5] was > 16000 nM and the IC50 [6] was > 16000 nM. The IC50 [7] was > 16000 nM, the IC50 [8] was > 16000 nM and the IC50 [9] was > 16000 nM. For the same molecule, the IC50 [10] was > 16000 nM, the IC50 [11] was > 16000 nM and the IC50 [12] was > 16000 nM. For the same molecule, the IC50 [13] was > 16000 nM, the IC50 [14] was > 16000 nM and the IC50 [15] was > 16000 nM. For the same molecule, the IC50 [16] was > 16000 nM, the IC50 [17] was > 16000 nM and the IC50 [18] was > 16000 nM. For the same molecule, the IC50 [19] was > 16000 nM, the IC50 [20] was > 16000 nM and the IC50 [21] was > 16000 nM. For the same molecule, the IC50 [22] was > 16000 nM, the IC50 [23] was > 16000 nM and the IC50 [24] was > 16000 nM. The IC50 [25] was > 16000 nM, the IC50 [26] was > 16000 nM and the IC50 [27] was > 16000 nM. For the same molecule, the IC50 [28] was > 16000 nM, the IC50 [29] was > 16000 nM and the IC50 [30] was > 16000 nM. The IC50 [31] was > 16000 nM, the IC50 [32] was > 16000 nM and the IC50 [33] was > 16000 nM. For the same molecule, the IC50 [34] was > 16000 nM, the IC50 [35] was > 16000 nM and the IC50 [36] was > 16000 nM. The IC50 [37] was > 16000 nM, the IC50 [38] was > 16000 nM and the IC50 [39] was > 16000 nM. For the same molecule, the IC50 [40] was > 16000 nM, the IC50 [41] was > 16000 nM and the IC50 [42] was > 16000 nM. For the same molecule, the IC50 [43] was > 16000 nM, the IC50 [44] was > 16000 nM and the IC50 [45] was > 16000 nM. The IC50 [46] was > 16000 nM, the IC50 [47] was > 16000 nM and the IC50 [48] was > 16000 nM. The IC50 [49] was > 16000 nM, the IC50 [50] was > 16000 nM and the IC50 [51] was > 16000 nM. For the same molecule, the IC50 [52] was > 16000 nM, the IC50 [53] was > 16000 nM and the IC50 [54] was > 16000 nM. For the same molecule, the IC50 [55] was > 16000 nM, the IC50 [56] was > 16000 nM and the IC50 [57] was > 16000 nM. For the same molecule, the IC50 [58] was > 16000 nM, the IC50 [59] was > 16000 nM and the IC50 [60] was > 16000 nM. The IC50 [61] was > 16000 nM, the IC50 [62] was > 16000 nM and the IC50 [63] was > 16000 nM. For the same molecule, the IC50 [64] was > 16000 nM and the IC50 [65] was > 16000 nM.
